We go through 23 molecules from patent US9353081B2, “Bicyclic dihydroquinoline-2-one derivatives” (Hoffmann-La Roche Inc., priority 2011, dated 2016).

One experiment concerns the target human CYP11B2 (Homo sapiens (Human), UniProt P19099). Kind of experiment: G-402 cellular enzyme assay, human CYP11B2 (aldosterone release, HTRF). To be noted: G-402 cells expressing human CYP11B2; 1 μM Deoxycorticosterone. The format is cell-based. The source says:
(§1) Specifically we developed stable G-402 cells expressing ectopically human CYP11B1, human CYP11B2, human CYP11A1, cynomolgus CYP11B1 or cynomolgus CYP11B2 enzyme activity.
(§2) The expression plasmids contains the ORF for either human/cyno CYP11B1 or CYP11B2 under the control of a suitable promoter (CMV-promoter) and a suitable resistance marker (neomycin). Using standard techniques the expression plasmid is transfected into G-402 cells and these cells are then selected for expressing the given resistance markers. Individual cell-clones are then selected and assessed for displaying the desired enzymatic activity using 11-Deoxycorticosterone (Cyp11B2) or 11-Deoxycortisol (Cyp11B1) as a substrate.
(§3) For assaying enzymatic activity, cells were plated onto 96 well plates and incubated for 16 h. An aliquot of the supernatant is then transferred and analyzed for the concentration of the expected product (Aldosterone for CYP11B2; Cortisol for CYP11B1). The concentrations of these steroids can be determined using HTRF assays from CisBio analyzing either Aldosterone or Cortisol.
(§4) Inhibition of the release of produced steroids can be used as a measure of the respective enzyme inhibition by test compounds added during the cellular enzyme assay. The dose dependent inhibition of enzymatic activity by a compound is calculated by means of plotting added inhibitor concentrations x-axes) vs. measured steroid/product level (y-axes). The inhibition is then calculated by fitting the following 4-parameter sigmoidal function (Morgan-Mercer-Flodin (MMF) model) to the raw data points using the least squares method:
(§5) [formula] wherein, A is the maximum y value, B is the EC50 factor determined using XLFit, C is the minimum y value and D is the slope value.
(§6) EC50 values for compounds claimed herein were tested with the G402-based assay system described. Cyp11B2 enzyme activity was tested in presence of 1 μM Deoxycorticosterone and variable amounts of inhibitors; Cyp11B1 enzyme activity was tested in presence of 1 μM Deoxycortisol and variable amounts of inhibitors.
In general terms: In TR-FRET formats the signal depends on donor and acceptor labels being close together.

Another experiment concerns the target human CYP11B1 (Homo sapiens (Human), UniProt P15538). Nature of the experiment: G-402 cellular enzyme assay, human CYP11B1 (cortisol release, HTRF). Particulars: G-402 cells expressing human CYP11B1; 1 μM Deoxycortisol. The format is cell-based.
Text: as §1, §2, §3, §4, §5, §6

Chain of human CYP11B2 (P19099 25-503): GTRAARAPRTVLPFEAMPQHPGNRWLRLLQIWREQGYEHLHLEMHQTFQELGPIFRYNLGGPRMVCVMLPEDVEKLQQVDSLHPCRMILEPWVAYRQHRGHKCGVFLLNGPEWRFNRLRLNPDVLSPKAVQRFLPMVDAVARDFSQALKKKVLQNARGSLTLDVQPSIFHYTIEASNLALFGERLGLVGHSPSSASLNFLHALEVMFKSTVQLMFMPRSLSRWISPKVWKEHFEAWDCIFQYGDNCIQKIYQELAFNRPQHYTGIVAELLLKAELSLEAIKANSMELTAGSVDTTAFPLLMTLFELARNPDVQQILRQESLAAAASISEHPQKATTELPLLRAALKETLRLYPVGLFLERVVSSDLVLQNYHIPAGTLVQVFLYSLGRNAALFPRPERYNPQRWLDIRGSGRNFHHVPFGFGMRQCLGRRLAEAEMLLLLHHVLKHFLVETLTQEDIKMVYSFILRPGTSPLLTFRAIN
Chain of human CYP11B1 (P15538 25-503): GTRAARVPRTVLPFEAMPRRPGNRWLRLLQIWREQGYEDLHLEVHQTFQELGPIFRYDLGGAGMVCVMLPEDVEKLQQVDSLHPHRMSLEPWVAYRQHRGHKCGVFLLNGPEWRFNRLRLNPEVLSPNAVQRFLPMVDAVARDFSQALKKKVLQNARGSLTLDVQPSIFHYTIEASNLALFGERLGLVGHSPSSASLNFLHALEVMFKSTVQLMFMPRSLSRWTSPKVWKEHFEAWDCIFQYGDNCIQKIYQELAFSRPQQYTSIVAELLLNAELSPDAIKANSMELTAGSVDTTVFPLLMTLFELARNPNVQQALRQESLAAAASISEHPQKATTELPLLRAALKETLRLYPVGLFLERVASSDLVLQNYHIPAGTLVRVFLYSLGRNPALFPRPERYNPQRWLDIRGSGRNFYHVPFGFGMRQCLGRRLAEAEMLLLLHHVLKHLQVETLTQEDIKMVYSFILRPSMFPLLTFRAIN

Usually EC50 stands for the concentration at which the effect is half-maximal. A lower EC50 goes with a more potent agent. As to `CCC(=O)N[C@@H]1CCCc2c(-c3ccc4c(c3)CCC(=O)N4C)cncc21` [Example 3-1, (+)-(R)—N-(4-(1-Methyl-2-oxo-1,2,3,4-tetrahydroquinolin-6-yl)-5,6,7,8-tetrahydroisoquinolin-8-yl)propionamide], the EC50 at human CYP11B2 turned out to be 14 nM; on human CYP11B1, 980 nM.

Take `CCC(=O)NC1CCc2c(-c3cc4c(cc3F)N(C)C(=O)CC4)cncc21` (single isomer, unassigned; (+)) [Example 24, (+)-(R or S)—N-(4-(7-Fluoro-1-methyl-2-oxo-1,2,3,4-tetrahydroquinolin-6-yl)-6,7-dihydro-5H-cyclopenta[c]pyridin-7-yl)propionamide]: the figures for the EC50 on human CYP11B2 and on human CYP11B1 were 3.8 nM and 466 nM, respectively.

On to `CCS(=O)(=O)NC1CCCc2c(-c3ccc4c(c3)CCC(=O)N4C)cncc21` (single isomer, unassigned; (-)) [Example 5, (−)-(R or S)—N-(4-(1-Methyl-2-oxo-1,2,3,4-tetrahydroquinolin-6-yl)-5,6,7,8-tetrahydroisoquinolin-8-yl)ethanesulfonamide], for which the EC50 was determined as 1290 nM at human CYP11B2 and 11800 nM on human CYP11B1.

For `CN1C(=O)CCc2cc(-c3cncc4c3CCCC4O)ccc21` (racemic) [Example 67, (rac)-6-(8-Hydroxy-5,6,7,8-tetrahydro-isoquinolin-4-yl)-1-methyl-3,4-dihydroquinolin-2(1H)-one], the EC50 was 4.7 nM at human CYP11B2 and 206 nM on human CYP11B1.

`CN1C(=O)CCc2cc(-c3cncc4c3CCCC4O)ccc21` (single isomer, unassigned) [Example 68, (S or R)-6-(8-Hydroxy-5,6,7,8-tetrahydro-isoquinolin-4-yl)-1-methyl-3,4-dihydroquinolin-2(1H)-one]: the concentration for a half-maximal effect (EC50) at human CYP11B2 is 77.4 nM; on human CYP11B1, 1620 nM.

`CCS(=O)(=O)NC1CCCc2c(-c3ccc4c(c3)CCC(=O)N4C)cncc21` (single isomer, unassigned; (+)) [Example 6, (+)-(S or R)—N-(4-(1-Methyl-2-oxo-1,2,3,4-tetrahydroquinolin-6-yl)-5,6,7,8-tetrahydroisoquinolin-8-yl)ethanesulfonamide]: the values for the EC50 at human CYP11B2 and on human CYP11B1 were 48 nM and 1750 nM, respectively.

With `CCC(=O)N[C@@H]1c2cncc(-c3cc4c(cc3F)N(C)C(=O)CC4)c2CC[C@@H]1F` (single isomer, unassigned) [Example 57, (−)-N-[(7S,8R or 7R,8S)-7-Fluoro-4-(7-fluoro-1-methyl-2-oxo-1,2,3,4-tetrahydro-quinolin-6-yl)-5,6,7,8-tetrahydro-isoquinolin-8-yl]-propionamide], the EC50 at human CYP11B2 turned out to be 884 nM; at human CYP11B1 it was 20300 nM.

Consider `CCC(=O)N[C@H]1c2cncc(-c3ccc4c(c3)CCC(=O)N4C)c2CC[C@H]1F` (single isomer, unassigned) [Example 53, (+)-N-[(7R,8S or 7S,8R)-7-Fluoro-4-(1-methyl-2-oxo-1,2,3,4-tetrahydro-quinolin-6-yl)-5,6,7,8-tetrahydro-isoquinolin-8-yl]-propionamide], for which the EC50 on human CYP11B2 turned out to be 122 nM; at human CYP11B1, 3570 nM.

With `C[C@H](O)C(=O)NC1CCCc2c(-c3ccc4c(c3)CCC(=O)N4C)cncc21` (single isomer, unassigned; (+)) [Example 21, (+)-(2S)-2-hydroxy-N-((4R or 4S)-4-(1-methyl-2-oxo-1,2,3,4-tetrahydroquinolin-6-yl)-5,6,7,8-tetrahydroisoquinolin-8-yl)propanamide], the results for the EC50 at human CYP11B2 and on human CYP11B1 were 28 nM and 598 nM, respectively.

`CN1C(=O)CCc2cc(-c3cncc4c3CCCN4CCNC(=O)OC(C)(C)C)ccc21` [Example 11, {2-[5-(1-Methyl-2-oxo-1,2,3,4-tetrahydro-quinolin-6-yl)-3,4-dihydro-2H-[1,7]naphthyridin-1-yl]-ethyl}-carbamic acid tert-butyl ester]: the figures for the EC50 at human CYP11B2 and on human CYP11B1 were 23 nM and 420 nM, respectively.

Take `C[C@H](O)C(=O)NC1CCCc2c(-c3ccc4c(c3)CCC(=O)N4C)cncc21` (single isomer, unassigned; (-)) [Example 20, (−)-(2S)-2-hydroxy-N-((4S or 4R)-4-(1-methyl-2-oxo-1,2,3,4-tetrahydroquinolin-6-yl)-5,6,7,8-tetrahydroisoquinolin-8-yl)propanamide]: the EC50 on human CYP11B2 turned out to be 823 nM; on human CYP11B1, 25500 nM.

Consider `CCC(=O)NC1CCCc2c(-c3cc(Cl)c4c(c3)CCC(=O)N4C)cncc21` (racemic) [Example 33, (rac)-N-[4-(8-Chloro-1-methyl-2-oxo-1,2,3,4-tetrahydro-quinolin-6-yl)-5,6,7,8-tetrahydro-isoquinolin-8-yl]-propionamide], for which the EC50 is 79.8 nM on human CYP11B2 and 11600 nM at human CYP11B1.

Take `CCC(=O)N[C@H]1c2cncc(-c3ccc4c(c3)CCC(=O)N4C)c2CC[C@@H]1C` (single isomer, unassigned) [Example 42, (+)-N-[(7S,8R or 7R,8S)-7-Methyl-4-(1-methyl-2-oxo-1,2,3,4-tetrahydro-quinolin-6-yl)-5,6,7,8-tetrahydro-isoquinolin-8-yl]-propionamide]: the EC50 at human CYP11B2 stood at 14.5 nM; on human CYP11B1, 524 nM.

On to `CCC(=O)NC1CCCc2c(-c3cc(Cl)c4c(c3)CCC(=O)N4C)cncc21` (single isomer, unassigned; (+)) [Example 41, (+)-N—[(R or S)-4-(8-Chloro-1-methyl-2-oxo-1,2,3,4-tetrahydro-quinolin-6-yl)-5,6,7,8-tetrahydro-isoquinolin-8-yl]-propionamide], for which the EC50 on human CYP11B2 was 16.6 nM; on human CYP11B1, 3530 nM.

Take `CCC(=O)NC1CCc2c(-c3cc(Cl)c4c(c3)CCC(=O)N4C)cncc21` (racemic) [Example 58, (rac)-N-(4-(8-Chloro-1-methyl-2-oxo-1,2,3,4-tetrahydroquinolin-6-yl)-6,7-dihydro-5H-cyclopenta[c]pyridin-7-yl)propionamide]: the EC50 on human CYP11B2 was 44.6 nM; at human CYP11B1, 7600 nM.

Take `CCC(=O)N[C@@H]1c2cncc(-c3ccc4c(c3)CCC(=O)N4C)c2CC[C@@H]1C` (single isomer, unassigned) [Example 46, (−)-N-[(7S,8S or 7R,8R)-7-Methyl-4-(1-methyl-2-oxo-1,2,3,4-tetrahydro-quinolin-6-yl)-5,6,7,8-tetrahydro-isoquinolin-8-yl]-propionamide]: the EC50 stood at 467 nM on human CYP11B2 and 19300 nM at human CYP11B1.

With `CN1C(=O)CCc2cc(-c3cncc4c3CCCC4=O)ccc21` [Example 70, 1-Methyl-6-(8-oxo-5,6,7,8-tetrahydro-isoquinolin-4-yl)-3,4-dihydro-1H-quinolin-2-one], the EC50 on human CYP11B2 is 15.7 nM; on human CYP11B1, 7170 nM.

For `CCC(=O)NC1CCc2c(-c3cc(Cl)c4c(c3)CCC(=O)N4C)cncc21` (single isomer, unassigned; (+)) [Example 60, (+)-(R or S)—N-(4-(8-Chloro-1-methyl-2-oxo-1,2,3,4-tetrahydroquinolin-6-yl)-6,7-dihydro-5H-cyclopenta[c]pyridin-7-yl)propionamide], the EC50 stood at 8.8 nM on human CYP11B2 and 1170 nM at human CYP11B1.

On to `CN1C(=O)CCc2cc(-c3cncc4c3CCCC4O)ccc21` (single isomer, unassigned) [Example 69, (R or S)-6-(8-Hydroxy-5,6,7,8-tetrahydro-isoquinolin-4-yl)-1-methyl-3,4-dihydroquinolin-2(1H)-one], for which the EC50 on human CYP11B2 was 2 nM; at human CYP11B1, 54.1 nM.

Turning to `CN1C(=O)CCc2cc(-c3cncc4c3CCC[C@H]4N)ccc21` [Example 61, (R)-6-(8-Amino-5,6,7,8-tetrahydroisoquinolin-4-yl)-1-methyl-3,4-dihydroquinolin-2(1H)-one], the EC50 was 5.6 nM on human CYP11B2 and 450 nM at human CYP11B1.

Regarding `CC(=O)N[C@@H]1CCCc2c(-c3ccc4c(c3)CCC(=O)N4C)cncc21` [Example 63, N—[(R)-4-(1-Methyl-2-oxo-1,2,3,4-tetrahydro-quinolin-6-yl)-5,6,7,8-tetrahydro-isoquinolin-8-yl]-acetamide], the values for the 50% effective concentration (EC50) on human CYP11B2 and at human CYP11B1 were 4.8 nM and 1190 nM, respectively.

On to `CCS(=O)(=O)NC1CCCc2c(-c3cc(Cl)c4c(c3)CCC(=O)N4C)cncc21` (single isomer, unassigned; (+)) [Example 38, (+)-Ethanesulfonic acid [(R or S)-4-(8-chloro-1-methyl-2-oxo-1,2,3,4-tetrahydro-quinolin-6-yl)-5,6,7,8-tetrahydro-isoquinolin-8-yl]-amide], for which the results for the EC50 at human CYP11B2 and at human CYP11B1 were 422 nM and 15900 nM, respectively.

`CCC(=O)NC1CCc2c(-c3ccc4c(c3)CCC(=O)N4C)cncc21` (racemic) [Example 7, (rac)-N-(4-(1-Methyl-2-oxo-1,2,3,4-tetrahydroquinolin-6-yl)-6,7-dihydro-5H-cyclopenta[c]pyridin-7-yl)propionamide]: the figures for the EC50 on human CYP11B2 and at human CYP11B1 were 12 nM and 1110 nM, respectively.
